Source: patent publication US20250034201A1, “PRODRUGS OF GANAXOLONE” (priority 2022, published 2025)
≈ marks a conversion by molar mass, not a printed value. Read-outs that look alike come from different tables or passages of the source.

Key:
[1] = Stability in simulated gastric fluid (SGF); format: in vitro ADME
Description: (§1) The stability of exemplary compounds in simulated gastric fluid (SGF) and simulated intestinal fluid (SIF) was tested according to the following protocol.

[2] = Stability in simulated intestinal fluid (SIF); format: in vitro ADME
Description: as §1

[3] = Rat liver microsomal stability; format: in vitro ADME
Description: (§2) For several compounds only human liver microsomal stability was tested. […] The microsomal assays were carried out with and without the addition of NADPH at a final concentration of 1 mM. For negative control samples, NADPH reagent was not added. […] Note that compounds undergo only Phase I metabolism in liver microsomes.
(§3) CLint=the intrinsic hepatic clearance (uL/min/mg), where CLint is equal to 0.693/(t1/2×Cmp)

in vitro [4] = format: in vitro ADME, human
Description: as §2

[5] = Dog liver microsomal stability; format: in vitro ADME
Description: as §2, §3
(§4) Certain compounds were also tested in mice and dog liver microsome assays according to the protocol outlined above. […].

in vitro [6] = assay: in vitro
Dog plasma stability = format: in vitro ADME
Description: (§5) For each test compound, samples at a final concentration of 2 μg/mL were prepared in blank plasma of selected species. All samples were incubated at 37° C. on a 150-RPM orbital shaker, and an aliquot was removed at pre-determined time points (0, 15, 30, 60, and 120 minutes). Samples were precipitated with three volumes of acetonitrile containing propranolol as internal standard, and centrifuged for 10 min at 2000 g before LC/MS/MS analysis of the supernatant solutions.

[7] = Pharmacokinetic study with Compound 224 (IV 2 mg/kg, PO 10 mg/kg); details: male, beagle, dog, plasma, analyte Compound 224, fasted male beagle dogs, mean
Description: Analysis time points for the IV arm were 0.083, 0.25, 0.5, 1, 2, 4, 8, 12, 24, 36 and 48 hours post dose and analysis time points for the PO arm were 0.25, 0.5, 1, 2, 4, 8, 12, 24, 36 and 48 hours post dose.

[8] = Measured solubility in buffer, LC-MS/MS; format: physicochemical; details: aqueous buffer, thermodynamic from solid
Description: […] The mixture was vortexed and a magnetic stirring bar was subsequently added to the vial. The vial was placed on a magnetic stirrer with constant stirring for 16-24 hours at room temperature. The pH of the top layer solution was measured. Subsequently, 200 μL of the top layer solution was placed in a 1.5 mL microcentrifuge tube and centrifuged at 18,000 g for 10 min at room temperature. A 10 μL aliquot of supernatant was added to 990 μL of methanol:water (1/:1, v/v) and vortexed. Then, one volume of acetonitrile containing internal standard was added to one volume of the above 100-fold diluted solution and the resulting solution was vortexed and placed in 96-well plate for LC-MS/MS analysis. […] LC-MS-MS analysis was performed utilizing multiple reaction monitoring for detection of characteristic ions for each test compound, additional related analytes and internal standard.

[9] = Mouse liver microsomal stability; format: in vitro ADME
Description: as §2, §3, §4

Mouse plasma stability = format: in vitro ADME; details: 2 μg/mL, 37° C.
Description: as §5

[10] = Pharmacokinetic study with Compound 111 (IV 5 mg/kg, PO 25 mg/kg); format: in vivo; details: analyte Compound 111, fasted male beagle dogs, mean; for AUC(0-t): read-out: Compound 111 PK AUClast; for MRT inf: read-out: Compound 111 PK MRTInf; for half-life: read-out: Compound 111 PK t1/2 (converted); for Vd: male, beagle, iv, 5 mg/kg
Description: […]; n=3) and oral (PO) administration (25 mg/kg; n=3) in fasted male beagle dogs.

[11] = dog, plasma, IV 5 mg/kg Compound 111
[12] = dog, plasma, oral 25 mg/kg Compound 111

## CC(=O)[C@H]1CC[C@H]2[C@@H]3CC[C@H]4C[C@](C)(OC(=O)COC(=O)C(C)(C)O)CC[C@]4(C)[C@H]3CC[C@]12C [Compound 224]
[1]; simulated gi fluid, 1 h, pH 1.2
  SGF (% remain, 60 min): 88%
[1]; simulated gi fluid, pH 1.2
  half-life: 6.08 h
[2]; simulated gi fluid, 1 h, pH 6.8
  SIF (% remain, 60 min): 60%
[2]; simulated gi fluid, pH 6.8
  half-life: 1.63 h
[3]; rat liver microsomes
  Comments: production of GNX (ganaxolone) in rat liver microsomes: In rat no GNX produced;
[3]; rat, microsomes
  half-life: 0.163 h
  microsomal CLint: 142 µL/min/mg
  Rat Liver Microsomal Stability no NADPH, % remain 1 h: 1.4%
In vitro [4]; human, microsomes
  half-life: 0.0278 h
  microsomal CLint: 828 µL/min/mg
  Human Liver Microsomal Stability no NADPH, % remain 1 h: 0.4%
[5]; dog, microsomes
  half-life: 0.118 h
  microsomal CLint: 196 µL/min/mg
  Dog Liver Microsomal Stability no NADPH, % remain 1 h: 0.6%
In vitro [6]; human
  Human plasma t90: 6.5 min
In vitro [6]; human, plasma
  half-life: 0.717 h
In vitro [6]; rat
  Rat plasma t90: 2.16 min
In vitro [6]; rat, plasma
  Observations: stability / GNX production in rat plasma: GNX produced in rat
  half-life: 0.24 h
Dog plasma stability; dog
  Dog plasma t90: 126 min
Dog plasma stability; dog plasma
  half-life: 14 h
[7]; Compound 224 PK Vss (L/kg)
  Vd: 5.92 L/kg
[7]; Compound 224 PK Vz (L/kg)
  Vd: 16.1 L/kg

## CC(=O)[C@H]1CC[C@H]2[C@@H]3CC[C@H]4C[C@](C)(OC(=O)CN)CC[C@]4(C)[C@H]3CC[C@]12C [Compound 111]
[8]; pH 7.4, 50 mM phosphate buffer, 16-24 hours, room temperature, read-out: Solubility pH 7.4
  solubility: 29.1 µg/mL (≈ 74.7 µM)
[8]; buffer, pH 2.0, room temperature, read-out: Solubility pH 2.0
  solubility: 1520 µg/mL (≈ 3900 µM)
[1]; SGF with pepsin pH 1.2, 37° C., 60 min
  SGF (% remain, 60 min): 95%
[1]; simulated gi fluid, SGF with pepsin pH 1.2, 37° C., 2 μg/mL, read-out: SGF t1/2
  half-life: 12.4 h
[2]; SIF with pancreatin pH 6.8, 37° C., 60 min
  SIF (% remain, 60 min): 79.0%
[2]; simulated gi fluid, SIF with pancreatin pH 6.8, 37° C., 2 μg/mL, read-out: SIF t1/2
  half-life: 4.27 h
[3]; rat liver microsomes
  Comments: production of GNX (ganaxolone) in rat liver microsomes: In rat no GNX produced;
[3]; rat liver microsomes 0.5 mg/mL, with NADPH, compound 0.5 μM, 37° C., read-out: Rat Liver Microsomal Stability t1/2
  half-life: 5.58 h
[3]; rat liver microsomes 0.5 mg/mL, with NADPH, compound 0.5 μM, read-out: Rat Liver Microsomal Stability CLint (uL/min/mg liver)
  microsomal CLint: 4.13 µL/min/mg
[3]; rat liver microsomes, no NADPH, compound 0.5 μM
  Rat Liver Microsomal Stability no NADPH, % remain 1 h: 99.7%
In vitro [4]; human liver microsomes 0.5 mg/mL, with NADPH, compound 0.5 μM, 37° C., read-out: Human Liver Microsomal Stability t1/2
  half-life: 3.17 h
In vitro [4]; human liver microsomes 0.5 mg/mL, with NADPH, compound 0.5 μM, read-out: Human Liver Microsomal Stability CLint (uL/min/mg liver) (converted)
  microsomal CLint: 7.28 µL/min/mg
In vitro [4]; human liver microsomes, no NADPH, compound 0.5 μM
  Human Liver Microsomal Stability no NADPH, % remain 1 h: 82.6%
[9]; mouse liver microsomes 0.5 mg/mL, compound 0.5 μM, read-out: Mouse Liver Microsomal Stability CLint (uL/min/mg liver)
  microsomal CLint: 11.8 µL/min/mg
[9]; mouse liver microsomes 0.5 mg/mL, compound 0.5 μM, read-out: Mouse Liver Microsomal Stability t1/2
  half-life: 1.97 h
[9]; mouse liver microsomes, no NADPH, 1 h
  Mouse Liver Microsomal Stability no NADPH, % remain 1 h: 92.7%
[5]; dog liver microsomes 0.5 mg/mL, compound 0.5 μM, read-out: Dog Liver Microsomal Stability CLint (uL/min/mg liver)
  microsomal CLint: 4.95 µL/min/mg
[5]; dog liver microsomes 0.5 mg/mL, compound 0.5 μM, read-out: Dog Liver Microsomal Stability t1/2
  half-life: 4.67 h
[5]; dog liver microsomes, no NADPH
  Dog Liver Microsomal Stability no NADPH, % remain 1 h: 92.3%
In vitro [6]; human plasma, 2 μg/mL, 37° C.
  Human plasma t90: 542 min
In vitro [6]; human, plasma
  half-life: 60 h
In vitro [6]; rat plasma, 2 μg/mL, 37° C.
  Rat plasma t90: 132 min
In vitro [6]; rat, plasma
  half-life: 14.6 h
Mouse plasma stability
  Mouse plasma t90: 67.2 min
Mouse plasma stability; read-out: Mouse plasma Half life (t1/2)
  half-life: 7.43 h
Dog plasma stability; dog plasma, 2 μg/mL, 37° C.
  Dog plasma t90: 243 min
Dog plasma stability; dog plasma, 2 μg/mL, 37° C., read-out: Dog plasma Half life (t1/2)
  half-life: 26.8 h
[10]; oral 25 mg/kg Compound 111
  Compound 111 PK AUCInf/D: 68.7 kg·ng·h/mL/mg
[10]; dog, plasma, IV 5 mg/kg Compound 111, read-out: Compound 111 PK AUCinf
  AUC(0-inf): 2790 ng·h/mL
[10]; [11]
  AUC(0-t): 2740 ng·h/mL
  MRT inf: 3.68 h
  half-life: 3.54 h
[10]; dog, plasma, IV 5 mg/kg Compound 111, read-out: Compound 111 PK C0
  C0: 1500 ng/mL
[10]; dog, plasma, IV 5 mg/kg Compound 111, read-out: Compound 111 PK CL
  clearance: 31.7 mL/min/kg
[10]; dog, plasma, oral 25 mg/kg Compound 111, read-out: Compound 111 PK AUCInf
  AUC(0-inf): 1720 ng·h/mL
[10]; [12]
  AUC(0-t): 1570 ng·h/mL
  MRT inf: 10.6 h
  half-life: 7.15 h
[10]; dog, plasma, oral 25 mg/kg Compound 111, read-out: Compound 111 PK Cmax
  Cmax: 177 ng/mL
[10]; dog, plasma, oral 25 mg/kg Compound 111, read-out: Compound 111 PK Tmax
  Tmax: 2.67 h
[10]; dog, plasma, oral 25 mg/kg vs IV 5 mg/kg Compound 111, read-out: Compound 111 PK F (%)
  bioavailability: 11.4%
[10]; dog, plasma, IV 5 mg/kg Compound 111, read-out: Compound 111 PK Vss
  Vd: 6.71 L/kg
[10]; dog, plasma, IV 5 mg/kg Compound 111, read-out: Compound 111 PK Vz
  Vd: 9.47 L/kg
